{"source": "patent US20080108665A1", "about": "“Use of N-substituted sulfoximines for control of invertebrate pests” (priority 2006, published 2008)", "assay_type_in_all_cases": "in vivo", "key": {"[1]": {"system": "Bird Cherry-Oat Aphid (Rhopalosiphum padi)", "test": "Bird cherry-oat aphid seed coating assay on wheat", "details": "1.34 mg/seed, 10% SC formulation, 4 days after infestation", "method": "Twenty spring wheat (Triticum aestivum var. Yuma) seeds were placed on a waxed paper. A pipette was used to apply a 10% SC formulation of the test compound to each seed. Two application of 6.7 μl each were applied to a seed, waiting until the seed was air-dried between applications. The total amount of active ingredient applied to each seed was 1.34 mg. All coated seeds are planted into 3 inch pots containing greenhouse metro mix, with 4 seeds used in each pot. An appropriate number of untreated seeds was also planted for control. The pots are placed on a California cart and moved into a greenhouse for initial and subsequent sub-watering. When the plants had germinated and grown to the 1-2 leaf unfurled stage, they were infested with bird cherry-oat aphid. The infested plants were held in an environmental chamber (23° C., 40% RH, 16 hr light: 8 hr dark) for 4 days before an assessment of aphid populations was conducted. Calculations for % Control are based on a corrected basis compared to the populations on the untreated controls.\nCorrected % Control=100*(X−Y)/X • where X=No. of live aphids on untreated plants • Y=No. of live aphids on treated plants"}, "[2]": {"system": "Brown Planthopper (Nilaparvata lugens)", "test": "Brown planthopper root uptake assay on rice", "details": "6-day observation", "method": "These assays were designed to evaluate the possibility of using compounds of the invention for applications such as nursing trays, transplanting water and/or irrigation. Root-uptake systemic assays were performed on both brown planthopper and green leafhopper. Four-week-old rice seedlings were submerged in 3-cm depth of water in the bottom portion (high 5 cm, diameter 3 cm) of a 2-part glass cylinder (high 18 cm, diameter 3 cm). A metal screen was used to hold the seedlings within the bottom portion. Scotch tape was used to bind the two portions of the cylinder after setting up the seedlings. A metal cap was used to cover the cylinder. There were 4 cylinders for each treatment. The test compound was dissolved in acetone to make a 10,000 ppm stock solution which was incorporated at final test concentrations of 5, 2, 1, 0.5, 0.25 ppm in the water in which rice seedlings were submerged. Five laboratory-reared 3rd instar nymphs of brown planthopper or green leafhopper were introduced into each cylinder 3 hr after insecticide application. The treated test units were kept in a growth chamber with conditions set as followings: Temperature 28±0.5° C.; Relative humidity 70±0.5%; Photoperiod 14 hr light: […]."}, "[3]": {"system": "Brown Dog Tick (Rhipicephalus sanguineus)", "test": "Brown dog tick glass plate assay", "details": "48-hour exposure, mean", "method": "Compound (2) was evaluated in a dose response series to establish the range of activity of the test compound. Technical material was dissolved in acetone and diluted with the same solvent to obtain the test concentrations. Tick bioassays were conducted by applying 1.0 ml of the test substance to clean dry glass plates confined by 10 cm grease pencil circles drawn on the plates and spread evenly with an acid brush. The plates were allowed to dry for at least 1 hour before adult ticks were confined to the treated substrate using 10 cm Petri dish lids. Each treatment was replicated 5 times. Approximately 5 adult ticks were placed into each replicate. Mortality was assessed at 2, 8, 24 and 48 hours after introduction of the ticks into the test system. The mean percent mortality for each dosage group and time interval was determined and results from the 48-hour observation are presented in Table 9."}, "[4]": {"system": "Cotton Aphid (Aphis gossypii)", "test": "Cotton aphid seed coating assay on squash", "details": "for % Control, seed coating systemic: 1st leaf infested 13 days after planting", "method": "Selected compounds of the invention were tested in assays designed to evaluate its systemic activity for control of cotton aphid through seed-coating prior to planting. The crop used in these assays was a hybrid squash (var. Pic-N-Pic). Test compound was formulated in a 10% SC formulation. Ten squash seeds were used for each treatment. Seeds were placed on waxed paper and a pipette was used to apply the original or diluted formulations to each seed. The air-dried, treated seeds were individually planted into 3 inch pots containing metro mix. The pots were placed on a California cart and moved into the greenhouse for sub watering only. At the specified number of days after planting, the plants were infested with approximately 40 wingless aphids. The infested plants were kept in an environmental holding room (23° C., 40% RH, 16 hr light: 8 hr dark) for three days before the number of live aphids was counted under a microscope. Calculations for % Control were based on a corrected basis compared to the populations on the reference plants germinated from seeds treated with the formulation blank.\nCorrected % Control=100*(X−Y)/X • where X=No. of live aphids on reference plants • Y=No. of live aphids on treated plants Assay 1. Compounds (1) and (2) were tested at 3 mg/seed. The original 10% SC formulation was used. One half (15 ul) of the sample was spread onto one side of a seed. Once dried (approximately 1 hr), the seed was flipped over and the 2nd half of sample was spread over the other side. Fourteen and 25 days after planting, aphid infestations were conducted on the 1st and 2nd true leaves, respectively.\nAssay 2. Compound (2) was tested at 0.1 and 1 mg/seed. For the 1 mg/seed treatment, the original 10% formulation was used. For the 0.1 mg/seed treatment, the 10% formulation were diluted 10× with DI water before application. One half (5 ul) of the sample was spread onto one side of a seed. Once dried (approximately 1 hr), the seed was flipped over and the 2nd half of sample was spread over the other side. Thirteen days after planting, the 1st leaf was infested."}, "[5]": {"details": "3 mg/seed, 10% SC formulation, counted 3 days after infestation"}}, "data": [{"smiles": "CC(c1ccc(Cl)nc1)S(C)(=O)=NC#N", "note": "(stereo not shown) [Compound 2, [1-(6-chloropyridin-3-yl)ethyl](methyl)oxido-λ^4-sulfanylidenecyanamide]", "values": [{"measurement": "% Control, seed coating systemic", "setting": "[1]", "result": 100, "unit": "%"}, {"measurement": "% Control, root uptake systemic Brown planthopper", "setting": "[2]; 0.25 ppm in water", "result": 55, "unit": "%"}, {"measurement": "% Control, root uptake systemic Brown planthopper", "setting": "[2]; 0.50 ppm in water", "result": 80, "unit": "%"}, {"measurement": "% Control, root uptake systemic Brown planthopper", "setting": "[2]; 1.00 ppm in water", "result": 100, "unit": "%"}, {"measurement": "% Control, root uptake systemic Brown planthopper", "setting": "[2]; 2.00 ppm in water", "result": 100, "unit": "%"}, {"measurement": "% Control, root uptake systemic Brown planthopper", "setting": "[2]; 5.00 ppm in water", "result": 100, "unit": "%"}, {"measurement": "mortality at 5 ppm", "setting": "[3]; 5.0 ppm", "result": 52, "unit": "%"}, {"measurement": "mortality at 50 ppm", "setting": "[3]; 50.0 ppm", "result": 56, "unit": "%"}, {"measurement": "mortality at 500 ppm", "setting": "[3]; 500.0 ppm", "result": 84, "unit": "%"}, {"measurement": "% Control, seed coating systemic", "setting": "[4]; 0.1 mg/seed", "result": 36.5, "unit": "%"}, {"measurement": "% Control, seed coating systemic", "setting": "[4]; 1 mg/seed", "result": 99.8, "unit": "%"}, {"measurement": "% Control, seed coating systemic 1st leaf, 14 days after planting", "setting": "[4]; [5]", "result": 100, "unit": "%"}, {"measurement": "% Control, seed coating systemic 2nd leaf, 25 days after planting", "setting": "[4]; [5]", "result": 99.8, "unit": "%"}]}]}
